Data taken from BindingDB's records for doi:10.1021/acs.jmedchem.6b01885 (Indiana University School of Medicine, 2017).

Biological target: Survival motor neuron protein (Homo sapiens, UniProt Q16637)
Experiment: Stabilization of human SMN protein expressed in HEK293 cells expressing SMN2 promoter after 24 hrs by luciferase reporter gene assay

Chain of Survival motor neuron protein (Q16637 whole entry): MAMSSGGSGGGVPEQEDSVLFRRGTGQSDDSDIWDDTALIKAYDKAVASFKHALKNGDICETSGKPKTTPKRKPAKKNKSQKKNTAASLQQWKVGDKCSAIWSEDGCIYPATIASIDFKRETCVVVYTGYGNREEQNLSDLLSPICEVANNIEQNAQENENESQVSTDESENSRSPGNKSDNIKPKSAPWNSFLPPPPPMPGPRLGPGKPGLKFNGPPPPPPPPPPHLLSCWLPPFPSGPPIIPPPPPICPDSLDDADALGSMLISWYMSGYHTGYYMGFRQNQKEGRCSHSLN

Question: How did the EC50 turn out when CC(C)c1cc(C(=O)N2CCc3ccccc32)no1 was run?
Answer: 720 nM

Question: How did the EC50 turn out when CC(C)c1cc(CNc2ccc(F)c(Cl)c2)no1 was run?
Answer: 11200 nM

Question: With O=C(Nc1ccc(F)c(Cl)c1)c1cc(Cc2ccccc2)on1 as the molecule, how does the EC50 read?
Answer: 3560 nM

Question: Which EC50 does the source give for CC(C)(C)c1cc(C(=O)Nc2ccc(F)c(Cl)c2)no1 here?
Answer: 1930 nM

Question: With CCc1cc(C(=O)Nc2ccc(F)c(Cl)c2)no1 as the molecule, how does the EC50 read?
Answer: 8800 nM

Question: CC(C)c1cc(C(=O)Nc2nc3ccccc3s2)no1 was tested. Which EC50 did it give?
Answer: 170 nM

Question: For CC(C)c1cc(C(=O)Nc2nc3ccccc3n2C)no1, which EC50 is on record?
Answer: 2600 nM

Question: CC(C)c1cc(C(=O)Nc2nccs2)no1 was tested. Which EC50 did it give?
Answer: 780 nM

Question: For CC(C)c1cc(C(=O)Nc2ccccn2)no1, which EC50 is on record?
Answer: 360 nM

Question: Cc1cccc(NC(=O)c2cc(C(C)C)on2)c1 was tested. Which EC50 did it give?
Answer: 1800 nM

Question: Cc1ccccc1NC(=O)c1cc(C(C)C)on1 was tested. Which EC50 did it give?
Answer: 5400 nM

Question: For COc1ccccc1NC(=O)c1cc(C(C)C)on1, which EC50 is on record?
Answer: 7300 nM

Question: Which EC50 does the source give for CC(C)c1cc(C(=O)Nc2ccc(Cl)cc2)no1 here?
Answer: 2800 nM

Question: Which EC50 does the source give for CC(C)c1cc(C(=O)Nc2ccccc2Cl)no1 here?
Answer: 6200 nM

Question: How did the EC50 turn out when CC(C)c1cc(C(=O)Nc2ccccc2F)no1 was run?
Answer: 260 nM

Question: CC(C)c1cc(C(=O)Nc2ccccc2)no1 was tested. Which EC50 did it give?
Answer: 280 nM

Question: Cc1c(C(=O)Nc2ccc(F)c(Cl)c2)noc1C(C)C was tested. Which EC50 did it give?
Answer: 500 nM

Question: With CC(C)c1nc(NC(=O)c2ccc(F)c(Cl)c2)cs1 as the molecule, how does the EC50 read?
Answer: 1600 nM

Question: For CC(C)c1cc(NC(=O)c2ccc(F)c(Cl)c2)on1, which EC50 is on record?
Answer: 5500 nM

Question: How did the EC50 turn out when CC(C)c1cc(NC(=O)c2ccc(F)c(Cl)c2)no1 was run?
Answer: 9900 nM

Question: O=C(Nc1ncc(C2CCC2)s1)c1ccc(F)c(Cl)c1 was tested. Which EC50 did it give?
Answer: 500 nM

Question: How did the EC50 turn out when CC(C)c1cc(C(=S)Nc2ccc(F)c(Cl)c2)no1 was run?
Answer: 13900 nM

Question: How did the EC50 turn out when CC(C)Cc1cc(C(=O)Nc2ccc(F)c(Cl)c2)no1 was run?
Answer: 1500 nM

Question: For CC(C)c1cc(C(=O)Nc2nc3ccccc3[nH]2)no1, which EC50 is on record?
Answer: 260 nM

Question: How did the EC50 turn out when Cc1ccc(NC(=O)c2cc(C(C)C)on2)cc1 was run?
Answer: 1400 nM

Question: Which EC50 does the source give for COc1cccc(NC(=O)c2cc(C(C)C)on2)c1 here?
Answer: 3600 nM

Question: How did the EC50 turn out when CC(C)c1cc(C(=O)Nc2cccc(F)c2)no1 was run?
Answer: 340 nM

Question: How did the EC50 turn out when CC(C)c1cc(C(=O)Nc2ccc(F)cc2)no1 was run?
Answer: 1800 nM

Question: How did the EC50 turn out when CC(C)c1cc(C(=O)Nc2cccc(Cl)c2)no1 [MLS000087323] was run?
Answer: 860 nM

Question: For CC(C)c1cc(C(=O)Nc2cccnc2)no1 [MLS000087329], which EC50 is on record?
Answer: 9900 nM
